According to ChEMBL document CHEMBL3856192, “Aroylhydrazone iron chelators: Tuning antioxidant and antiproliferative properties by hydrazide modifications” (Eur J Med Chem, 2016):

Tests used:
H9c2 [1] = experiment: Protection against t-BHP-induced oxidative injury in rat H9c2 cells assessed as increase in cell viability incubated for 10 mins followed by stimulation with t-BHP for 24 hrs by neutral red staining based assay; type: functional
[2] = Stability in rabbit plasma assessed as parent compound remaining at 100 uM after 10 hrs by HPLC analysis; type: ADME, cell-free, Oryctolagus cuniculus; details: read-out: Stability
[3] = Cytotoxicity against rat H9c2 cells assessed as decrease in cell viability after 72 hrs by neutral red staining based assay; type: toxicity
[4] = Drug uptake in human SK-N-MC cells by beta scintillation counting analysis; type: ADME, cell-based
MCF7 [5] = experiment: Induction of transferrin labeled 59Fe mobilization in human MCF7 cells assessed as cellular 59Fe released at 25 uM after 3 hrs by gamma scintillation counting analysis (reference value: 11%); type: functional
MCF7 [6] = experiment: Inhibition of 59Fe uptake in human MCF7 cells labeled with 59Fe transferrin at 25 uM after 3 hrs relative to control; type: functional; details: MCF7, 3 h
H9c2 [7] = experiment: Selectivity index, ratio of IC50 for rat H9c2 cells to IC50 for human HL60 cells; type: functional
[8] = Cytotoxicity against human MCF7 cells assessed as decrease in cell viability after 72 hrs by neutral red staining based assay; type: functional; details: MCF7, 72 h
[9] = Iron chelating activity assessed as Fe2+-compound complex formation at 5 uM measured for 360 secs by calcein based fluorescence assay relative to salicylaldehyde isonicotinoyl hydrazone; type: physicochemical; details: 0.1 h
[10] = Cytotoxicity against human HL60 cells assessed as decrease in cell viability after 72 hrs by MTT assay; type: functional, cell-based; details: HL-60, 72 h
H9c2 [11] = experiment: Selectivity index, ratio of IC50 for rat H9c2 cells to IC50 for human MCF7 cells; type: functional
SK-N-MC = experiment: Selectivity index, ratio of IC50 for HUVEC to IC50 for human SK-N-MC cells
[12] = Selectivity index, ratio of IC50 for rat L8 cells to IC50 for human SK-N-MC cells; type: functional
[13] = Antiproliferative activity against rat L8 cells after 22 to 72 hrs by MTT assay; type: cell-based
[14] = Antiproliferative activity against human SK-N-MC cells after 22 to 72 hrs by MTT assay; type: functional, cell-based
[15] = Antiproliferative activity against HUVEC after 22 to 72 hrs by MTT assay; type: cell-based; details: Homo sapiens
[16] = Iron chelating activity assessed as Fe3+-compound complex-induced antioxidant activity by measuring ascorbate oxidation level at iron binding equivalent of 3 measured after 10 to 40 mins in presence of 500 uM of citrate relative to control; type: physicochemical
H9c2 [17] = experiment: Protection against H202-induced oxidative injury in rat H9c2 cells assessed as increase in cell viability after 24 hrs by neutral red staining based assay; type: functional; details: H9c2, 24 h
H9c2 [18] = experiment: Selectivity index, ratio of IC50 for rat H9c2 cells to EC50 for rat H9c2 cells; type: functional
[19] = Iron chelating activity assessed as Fe3+-compound complex-induced antioxidant activity by measuring decrease in ascorbate oxidation level at iron binding equivalent of 3 measured after 10 to 40 mins in presence of 100 uM of citrate relative to control; type: physicochemical
[20] = Iron chelating activity assessed as Fe3+-compound complex-induced antioxidant activity by measuring ascorbate oxidation level at iron binding equivalent of 0.1 measured after 10 to 40 mins in presence of 500 uM of citrate relative to control; type: physicochemical

remaining at 10 h, 100 µM [2] [%]	Activity [9] [%]	Activity [16] [%]	Compound	IC50 at 72 h [3] [µM]	Activity (MCF7 [5])	inhibition at 25 µM (MCF7 [6]) [%]	Ratio IC50 (H9c2 [7])	IC50 [8] [µM]	IC50 [10] [µM]	Ratio IC50 (H9c2 [11])	further results
26			C/C(=N\NC(=O)c1ccncc1)c1ccccc1O	12.6							EC50 (H9c2 [1]): 11.4 µM
			CN(C)C(=S)NN=[14C](c1ccccn1)c1ccccn1								Kd [4]: 2.45 µM
76	84 to 109		CC/C(=N\NC(=O)c1cccc2ccccc12)c1ccccc1O	> 200	50 - 56%	17 to 61	>57	3.5	3.5	>57	
			O=C(N/N=C/c1c(O)ccc2ccccc12)c1ccncc1								Ratio IC50 (SK-N-MC): 40; Ratio IC50 [12]: 11; IC50 [13]: 5.4 µM; IC50 [14]: 0.5 µM; IC50 [15]: 20.1 µM
	84 to 109	10 to 44	CC/C(=N\NC(=O)c1cccnc1)c1ccccc1O	7.1	50 - 56%	17 to 61	1.5	5	4.9	1.4	EC50 (H9c2 [17]): 30 µM
	97 to 107	10 to 44	C/C(=N\NC(=O)c1ccnnc1)c1ccccc1O	22.8	54 - 57%	17 to 61	3.6	7.6	6.4	3	EC50 (H9c2 [17]): 55.3 µM
	84 to 109	10 to 44	CC/C(=N\NC(=O)c1cnccn1)c1ccccc1O	> 100	50%	17 to 61	>4	27.3	27	>4	
95	79		C/C(=N\NC(=O)c1cccc2ccccc12)c1ccccc1O	> 200	54 - 57%	17 to 61	>52	3.8	3.9	>52	
	97 to 107	10 to 44	C/C(=N\NC(=O)c1cccnc1)c1ccccc1O	6.8	54 - 57%	17 to 61	0.9	8.3	7.5	0.8	
	97 to 107	10 to 44	C/C(=N\NC(=O)c1cnccn1)c1ccccc1O	41.2	42%	17 to 61	1.9	22.4	22.3	1.8	
41	84 to 109		CC/C(=N\NC(=O)c1ccc(-c2ccccc2)cc1)c1ccccc1O	> 100	51%	17 to 61	>78	1.3	1.3	>78	
90	7		C/C(=N\NC(=O)c1ccc(-c2ccccc2)cc1)c1ccccc1O	> 100	41%	17 to 61	>37	4.6	2.7	>22	
41			CC/C(=N\NC(=O)c1ccncc1)c1ccccc1O					34.7			EC50 (H9c2 [1]): 17.8 µM
85	84 to 109	10 to 44	CC/C(=N\NC(=O)c1ccnnc1)c1ccccc1O	> 200	50 - 56%	17 to 61	>21	14.9	9.1	>13	EC50 (H9c2 [17]): 25 µM; Ratio IC50/EC50 (H9c2 [18]): 8; Activity [19]: Active
		16	CC(=O)N(O)CCCCCNC(=O)CCC(=O)N(O)CCCCCNC(=O)CCC(=O)N(O)CCCCCN [DEFEROXAMINE]								Activity [20]: 93%
		7	O=C(N/N=C/c1ccccc1O)c1ccncc1 [SALINAZID]	28.9	58%	15	5.1	12.4	5.7	2.3	EC50 (H9c2 [1]): 18.2 µM
